Data published in paper PMC10139033, “Identification of Potential p38γ Inhibitors via In Silico Screening, In Vitro Bioassay and Molecular Dynamics Simulation Studies” (International Journal of Molecular Sciences, 2023).
Where two headings read alike, the source gives them in different places.

How the values were obtained:
[1] = tested on: HepG2 cells; assay: CCK-8 cytotoxicity assay, HepG2; format: cell-based, human
Protocol: (§1) The compounds were tested for HCC cell lines using the Cell Counting Kit-8 (CCK-8) (Absin, Shanghai, China). The human HCC cell lines Huh7 and HepG2 were cultured in high-glucose Dulbecco’s modified Eagle’s medium (DMEM) supplemented with 10% fetal bovine serum (FBS), 1% penicillin, and 1% penicillin/streptomycin at 37 °C with 5% CO2. Huh7 and HepG2 cells were seeded into white 96-well plates at 3 × 10^3 cells per well in 100 μL suspension and pre-incubated overnight. The cells were then treated with different compound concentrations and incubated for 48 h. Control wells just contained cell suspension, while blank wells were added with complete media. The effects on proliferation were determined by the addition of 10 µL CCK-8 reagent, followed by incubation for 1 h. Finally, the absorbance of the reaction was measured at 450 nm using a Victor Nivo Multimode Microplate Reader. Cell viability was calculated as follows: Cell viability%= experimental well absorbance−blank well absorbance /control well absorbance−blank well absorbance ×100%
(§2) All data were collected from triplicate experiments and presented as the mean ± standard deviation of the mean. Data were analyzed using Graph Prism v9.0.0.121. One sample t test was used to calculate the statistical significance of the differences. p < 0.05 was considered statistically significant. The four-parameter dose-response curves and IC50 values were determined by a non-linear regression curve fitting method.

[2] = biological target: T1, p38γ (Homo sapiens, UniProt P53778); assay: p38γ kinase enzyme system with ADP-Glo kinase assay; format: biochemical
T1 construct: purchased Promega
T1 sequence (P53778 1-367): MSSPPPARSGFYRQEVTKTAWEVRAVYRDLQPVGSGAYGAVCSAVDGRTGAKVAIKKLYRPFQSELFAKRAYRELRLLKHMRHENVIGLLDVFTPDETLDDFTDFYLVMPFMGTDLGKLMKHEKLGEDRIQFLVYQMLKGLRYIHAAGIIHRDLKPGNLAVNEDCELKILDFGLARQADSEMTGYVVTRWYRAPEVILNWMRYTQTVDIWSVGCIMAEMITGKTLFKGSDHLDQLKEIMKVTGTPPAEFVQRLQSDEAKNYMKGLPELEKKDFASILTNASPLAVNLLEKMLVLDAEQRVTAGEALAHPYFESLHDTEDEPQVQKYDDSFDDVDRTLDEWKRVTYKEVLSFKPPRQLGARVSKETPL
Protocol: The inhibitory assay of p38γ was performed using the p38γ kinase enzyme system (Promega, Madison, WI, USA) with the ADP-Glo™ kinase assay kit (Promega, Madison, WI, USA). The kinase reactions were conducted in a total assay volume of 5 μL in a white 384-well plate. The kinase reaction mixture per well was composed using the reaction buffer supplemented with 50μM DTT and contained 50 ng p38γ, 1μg p38 substrate, 50 μM ATP, and the tested compound at the specified concentrations. Positive control wells receive 5% DMSO instead of 1 μL of the compound solution, and negative control wells are without both compound and enzyme in the reaction. After incubation of the plates at room temperature for 60 min, the reaction was stopped with 5 μL of ADP-Glo™ reagent for 40 min. Next, 10 µL of kinase detection reagent was added and incubated for another 30 min to convert the ADP to ATP. The ATP was then detected by measuring the luminescence using a Victor Nivo multimode microplate reader (PerkinElmer, Waltham, MA, USA) in an integration time of 1 s per well. The relative kinase activity was calculated as follows: p38γ kinase activity %=Lumenescence of compound−luminescence of negative control /Lumenescence of positive control−luminescence of negative control ×100%
as §2

[3] = tested on: Huh7 cells; assay: CCK-8 cytotoxicity assay, Huh7; format: cell-based, human
Protocol: as §1, §2

[4] = biological target: T1, p38γ; design: method as in PMID 29758280; conditions: read-out: experimental IC50 on p38γ; cited from earlier work

O=C(C1CC(=O)N(C2CCS(=O)(=O)C2)C1)N1CCC(c2c[nH]c3ncccc23)CC1 (centres unmarked) [compound 2, 1-(1,1-dioxothiolan-3-yl)-4-[4-(1H-pyrrolo [2,3-b]pyridin-3-yl)piperidine-1-carbonyl]pyrrolidin-2-one]
effect on viability of HepG2 cells ([1]; 1 µM, 48 h): no effect | effect on HCC cell growth (HepG2) ([1]; 10 and 100 µM, 48 h): potent inhibitory effects | IC50 ([1]; Homo sapiens, HepG2, 48 h treatment): 19.2 µM | reduction of p38γ activity ([2]; 1 μM): 72.43% | reduction of p38γ activity ([2]; 10 μM): 93.12% | reduction of p38γ activity ([2]; 100 μM): 96.18% | IC50 ([2]; 12-point four-fold dilution from 100 μM, 50 μM ATP): 0.0168 µM | effect on viability of Huh7 cells ([3]; 1 µM, 48 h): no effect | effect on HCC cell growth (Huh7) ([3]; 10 and 100 µM, 48 h): potent inhibitory effects | IC50 ([3]; Homo sapiens, Huh-7, 48 h treatment): 11.9 µM

Cc1ccc(=O)n(-c2ccccc2)c1 [pirfenidone]
IC50 [4]: > 125 µM
